In PubChem BioAssay (NCI):
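Dose response: 5 concentrations. Exposure: 48 h. Format: 96-well plates. Endpoint: linear interpolation; highest concentration if not reached. TGI: concentration producing complete growth inhibition.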

Legend:
Assay in all cases: NCI tumour cell line growth inhibition, 48 h
[1] = system: A498 renal
[2] = system: ACHN renal
[3] = system: CAKI-1 renal
[4] = system: CCRF-CEM leukemia
[5] = system: COLO 205 colon
[6] = system: DLD-1 colon
[7] = system: DMS 114 small cell lung
[8] = system: DMS 273 small cell lung
[9] = system: EKVX NSCLC
[10] = system: HCT-116 colon
[11] = system: HCT-15 colon
[12] = system: HL-60(TB) leukemia
[13] = system: HOP-18 NSCLC
[14] = system: HOP-92 NSCLC
[15] = system: HT29 colon
[16] = system: IGROV1 ovarian
[17] = system: K-562 leukemia
[18] = system: KM20L2 colon
[19] = system: LOX IMVI melanoma
[20] = system: LXFL 529 NSCLC
[21] = system: M14 melanoma
[22] = system: M19-MEL melanoma
[23] = system: MALME-3M melanoma
[24] = system: NCI-H226 lung
[25] = system: NCI-H23 lung
[26] = system: NCI-H460 lung
[27] = system: NCI-H522 lung
[28] = system: OVCAR-3 ovarian
[29] = system: OVCAR-8 ovarian
[30] = system: RPMI-8226 leukemia
[31] = system: RXF-631 renal
[32] = system: SF-268 CNS
[33] = system: SF-295 CNS
[34] = system: SF-539 CNS
[35] = system: SK-MEL-2 melanoma
[36] = system: SK-MEL-28 melanoma
[37] = system: SK-MEL-5 melanoma
[38] = system: SK-OV-3 ovarian
[39] = system: SN12C renal
[40] = system: SNB-19 CNS
[41] = system: SNB-78 CNS
[42] = system: SW-620 colon
[43] = system: TK-10 renal
[44] = system: U251 CNS
[45] = system: UACC-62 melanoma
[46] = system: UO-31 renal
[47] = system: XF 498 CNS
[48] = system: A549 NSCLC
[49] = system: HOP-62 NSCLC
[50] = system: MOLT-4 leukemia
[51] = system: OVCAR-4 ovarian
[52] = system: RXF 393 renal
[53] = system: SNB-75 CNS
[54] = system: UACC-257 melanoma

CCOc1ccc(/C(C=O)=C(\Cl)c2ccc(OC)c(OC)c2)cc1
TGI [1]: > 100 µM | TGI [2]: > 100 µM | TGI [3]: > 100 µM | TGI [4]: > 100 µM | TGI [5]: > 100 µM | TGI [6]: > 100 µM | TGI [7]: > 100 µM | TGI [8]: > 100 µM | TGI [9]: > 100 µM | TGI [10]: > 100 µM | TGI [11]: > 100 µM | TGI [12]: > 100 µM | TGI [13]: > 100 µM | TGI [14]: > 100 µM | TGI [15]: > 100 µM | TGI [16]: > 100 µM | TGI [17]: > 100 µM | TGI [18]: > 100 µM | TGI [19]: > 100 µM | TGI [20]: > 100 µM | TGI [21]: > 100 µM | TGI [22]: > 100 µM | TGI [23]: > 100 µM | TGI [24]: > 100 µM | TGI [25]: > 100 µM | TGI [26]: > 100 µM | TGI [27]: > 100 µM | TGI [28]: > 100 µM | TGI [29]: > 100 µM | TGI [30]: > 100 µM | TGI [31]: > 100 µM | TGI [32]: > 100 µM | TGI [33]: > 100 µM | TGI [34]: > 100 µM | TGI [35]: > 100 µM | TGI [36]: > 100 µM | TGI [37]: > 100 µM | TGI [38]: > 100 µM | TGI [39]: > 100 µM | TGI [40]: > 100 µM | TGI [41]: > 100 µM | TGI [42]: > 100 µM | TGI [43]: > 100 µM | TGI [44]: > 100 µM | TGI [45]: > 100 µM | TGI [46]: > 100 µM | TGI [47]: 79.2 µM

CC(=O)OCC1=C(C(=O)O)C(c2ccc3c(c2)OCO3)c2cc3c(cc2O1)OCO3 (stereo not given)
TGI [48]: > 100 µM | TGI [2]: > 100 µM | TGI [3]: > 100 µM | TGI [4]: > 100 µM | TGI [5]: > 100 µM | TGI [6]: > 100 µM | TGI [7]: > 100 µM | TGI [8]: > 100 µM | TGI [9]: > 100 µM | TGI [10]: > 100 µM | TGI [11]: > 100 µM | TGI [12]: > 100 µM | TGI [13]: > 100 µM | TGI [49]: > 100 µM | TGI [14]: > 100 µM | TGI [15]: > 100 µM | TGI [16]: > 100 µM | TGI [17]: > 100 µM | TGI [18]: > 100 µM | TGI [19]: > 100 µM | TGI [21]: > 100 µM | TGI [22]: > 100 µM | TGI [23]: > 100 µM | TGI [50]: > 100 µM | TGI [25]: > 100 µM | TGI [26]: > 100 µM | TGI [28]: > 100 µM | TGI [51]: > 100 µM | TGI [29]: > 100 µM | TGI [30]: > 100 µM | TGI [52]: > 100 µM | TGI [31]: > 100 µM | TGI [33]: > 100 µM | TGI [34]: > 100 µM | TGI [36]: > 100 µM | TGI [37]: > 100 µM | TGI [38]: > 100 µM | TGI [39]: > 100 µM | TGI [40]: > 100 µM | TGI [53]: > 100 µM | TGI [41]: > 100 µM | TGI [42]: > 100 µM | TGI [43]: > 100 µM | TGI [44]: > 100 µM | TGI [54]: > 100 µM | TGI [45]: > 100 µM | TGI [46]: > 100 µM | TGI [47]: > 100 µM
